Assay [1] concerns the target T1, Cyclin-C (Homo sapiens, UniProt P24863).
T1 sequence (P24863 whole entry): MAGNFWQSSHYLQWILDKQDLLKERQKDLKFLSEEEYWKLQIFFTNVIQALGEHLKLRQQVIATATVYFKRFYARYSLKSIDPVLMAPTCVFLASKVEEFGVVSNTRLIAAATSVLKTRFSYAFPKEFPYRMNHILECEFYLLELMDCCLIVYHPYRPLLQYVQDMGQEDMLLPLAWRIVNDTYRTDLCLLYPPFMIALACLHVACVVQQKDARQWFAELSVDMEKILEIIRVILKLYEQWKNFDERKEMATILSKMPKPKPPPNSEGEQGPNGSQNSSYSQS
In words: Displacement of Kinase tracer 236 from recombinant full-length human N-terminal GST-fused CDK8 (1 to 464 residues)/cyclin C (1 to 283 residues) expressed in baculovirus expression system after 60 mins by TR-FRET assay. A general note: TR-FRET usually uses a lanthanide donor and a delayed reading to cut background.

Assay [2] deals with T1, Cyclin-C. As to the kind of experiment: Inhibition of recombinant full-length human His-tagged CDK8/cyclinC expressed in baculovirus expression system by Lantha screen assay.

This passage reports IC50 results from BindingDB's records for doi:10.1016/j.ejmech.2018.11.076 (Shaoxing University, 2019).

On to `Cc1ncccc1Oc1sc(C(N)=O)c2c1-c1c(cnn1C)CC2`, for which the IC50 (usually the midpoint of a concentration-inhibition curve) on Cyclin-C [1] is 1.6 nM.

For `CC1CCc2nc(N)c(C#N)c(-c3cccnc3)c2C1` (configuration not stated) [2-azanyl-6-methyl-4-pyridin-3-yl-5,6,7,8-tetrahydroquinoline-3-carbonitrile], on Cyclin-C [2], the IC50 came to 500 nM.
